Data taken from ChEMBL document CHEMBL1201862, “PubChem BioAssay data set” (2004).
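Five concentrations, 48 hours, 96-well plates. GI50 marks 50% less growth.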 Calls of active or inactive are those of the source. Rule as the data show it: active = GI50 up to about 1.1 µM and inactive = higher.

Columns and labels:
Assay in all cases: NCI-60 cell line screen, 48 h
RXF 393 = test system: RXF 393
A498 = test system: A498
OVCAR-3 = test system: OVCAR-3
KM12 = test system: KM12
OVCAR-5 = test system: OVCAR-5
SF-295 = test system: SF-295
NCI-H460 = test system: NCI-H460
HOP-62 = test system: HOP-62
MDA-MB-231 = test system: MDA-MB-231
TK-10 = test system: TK-10
DU-145 = test system: DU-145
NCI/ADR-RES = test system: NCI/ADR-RES
EKVX = test system: EKVX
OVCAR-8 = test system: OVCAR-8
MOLT-4 = test system: MOLT-4
PC-3 = test system: PC-3
CAKI-1 = test system: CAKI-1
SR = test system: SR

Structure (SMILES) | GI50 (RXF 393) | GI50 (A498) | GI50 (OVCAR-3) | GI50 (KM12) | GI50 (OVCAR-5) | GI50 (SF-295) | GI50 (NCI-H460) | GI50 (HOP-62) | GI50 (MDA-MB-231) | GI50 (TK-10) | GI50 (DU-145) | GI50 (NCI/ADR-RES) | GI50 (EKVX) | GI50 (OVCAR-8) | GI50 (MOLT-4) | GI50 (PC-3) | GI50 (CAKI-1) | GI50 (SR)
NC1=CN(CCCO)C2=N/C(=C\c3ccco3)C(=O)N12 | > 100 µM (inactive) | > 100 µM (inactive) | > 100 µM (inactive) | > 100 µM (inactive) | > 100 µM (inactive) | > 100 µM (inactive) | > 100 µM (inactive) | > 100 µM (inactive) | > 100 µM (inactive) | > 100 µM (inactive) | > 100 µM (inactive) | > 100 µM (inactive) | > 100 µM (inactive) | > 100 µM (inactive) | > 100 µM (inactive) | > 100 µM (inactive) | > 100 µM (inactive) | 
CCOC(=O)c1cc(C2=C(S)N(CC(C)CC)CC2)c(C(=O)CC)[nH]1 (configuration not stated) | 20.7 µM (inactive) | 15.6 µM (inactive) |  | 16.9 µM (inactive) |  | 18.2 µM (inactive) | 20.6 µM (inactive) |  | 15.6 µM (inactive) | 15.3 µM (inactive) | 16.6 µM (inactive) | 29.5 µM (inactive) | 17.5 µM (inactive) | 21.5 µM (inactive) | 4.56 µM (inactive) | 19.7 µM (inactive) | 12.9 µM (inactive) | 5.96 µM (inactive)
CC1(C)CC(=O)c2c(nc3ccc4ccccc4c3c2-c2ccc(NC(=O)CCCCC(=O)Nc3ccc(-c4c5c(nc6ccc7ccccc7c46)CC(C)(C)CC5=O)cc3)cc2)C1 |  | > 100 µM (inactive) | > 100 µM (inactive) | > 100 µM (inactive) | > 100 µM (inactive) | > 100 µM (inactive) | > 100 µM (inactive) | > 100 µM (inactive) | > 100 µM (inactive) | > 100 µM (inactive) | > 100 µM (inactive) | > 100 µM (inactive) | > 100 µM (inactive) | > 100 µM (inactive) | > 100 µM (inactive) | > 100 µM (inactive) | > 100 µM (inactive) | > 100 µM (inactive)
CC(C)(C)c1cc(C(C)(C)C)c(SS(=O)(=O)O)c(O)c1O | 28.2 µM (inactive) | 54.7 µM (inactive) | 34.1 µM (inactive) | 41.8 µM (inactive) | > 100 µM (inactive) | 31.8 µM (inactive) | 10.9 µM (inactive) | 54.6 µM (inactive) | 52.7 µM (inactive) | > 100 µM (inactive) | 62.5 µM (inactive) | 58.1 µM (inactive) | 62.1 µM (inactive) | 44.9 µM (inactive) | < 0.01 µM (active) | 50.1 µM (inactive) | 52.2 µM (inactive) | 
CCOC(=O)C1(Cc2ccccc2)Cc2cc3c(cc2C1)CCC3 |  | 49.4 µM (inactive) | 41.1 µM (inactive) | 31.9 µM (inactive) | 25.2 µM (inactive) | 29.4 µM (inactive) | 31.3 µM (inactive) | 37.2 µM (inactive) | 30.4 µM (inactive) | 92.7 µM (inactive) | 44.6 µM (inactive) | 48.1 µM (inactive) | 42.8 µM (inactive) | 47.3 µM (inactive) | 17.5 µM (inactive) | 25.7 µM (inactive) | 39.5 µM (inactive) | 23.9 µM (inactive)
Cl.O=C(O)c1cccnc1 |  |  | > 100 µM (inactive) | > 100 µM (inactive) | 64.4 µM (inactive) | > 100 µM (inactive) | > 100 µM (inactive) | > 100 µM (inactive) | > 100 µM (inactive) | > 100 µM (inactive) | > 100 µM (inactive) | > 100 µM (inactive) | > 100 µM (inactive) | > 100 µM (inactive) | > 100 µM (inactive) | > 100 µM (inactive) | > 100 µM (inactive) | > 100 µM (inactive)
OC1CCN2Cc3ccccc3N=C12 (configuration not stated) | > 100 µM (inactive) | > 100 µM (inactive) | > 100 µM (inactive) | > 100 µM (inactive) | > 100 µM (inactive) | > 100 µM (inactive) | > 100 µM (inactive) | > 100 µM (inactive) | > 100 µM (inactive) | > 100 µM (inactive) | > 100 µM (inactive) | > 100 µM (inactive) | > 100 µM (inactive) | > 100 µM (inactive) | > 100 µM (inactive) | > 100 µM (inactive) | > 100 µM (inactive) | 
C[C@H](CCC(=O)O)[C@H]1CC[C@H]2[C@@H]3[C@H](O)C[C@@H]4C[C@H](O)CC[C@]4(C)[C@H]3CC[C@]12C [CHENODIOL] | 44.7 µM (inactive) | 69.5 µM (inactive) |  | 33.3 µM (inactive) | 52.6 µM (inactive) |  | 27.1 µM (inactive) | 37.2 µM (inactive) | 49.3 µM (inactive) | 26.2 µM (inactive) | 43.2 µM (inactive) | 36.6 µM (inactive) | 33.8 µM (inactive) | 12.1 µM (inactive) | 24.7 µM (inactive) | 36.4 µM (inactive) | 37.2 µM (inactive) | 14.6 µM (inactive)
